In test [1] the target is T1, TYK2 (Homo sapiens, UniProt P29597).
T1 construct: endogenous in cells; host or cells: Molt4 (ATCC CRL-1582) and Ramos (ATCC CRL-1596), mixed lysate 1:2
Briefly: Kinobeads assay, TYK2 (competition binding in mixed Molt4/Ramos cell lysate, dot blot detection). How it is done: (§1) The compounds of the present invention as described in the previous examples were tested in a Kinobeads™ assay as described for ZAP-70 (WO-A 2007/137867). Briefly, test compounds (at various concentrations) and the affinity matrix with the immobilized aminopyrido-pyrimidine ligand 24 were added to cell lysate aliquots and allowed to bind to the proteins in 10 the lysate sample. After the incubation time the beads with captured proteins were separated from the lysate. Bound proteins were then eluted and the presence of TYK2 and JAK2 was detected and quantified using specific antibodies in a dot blot procedure and the Odyssey infrared detection system. Dose response curves for individual kinases were generated and IC50 values calculated. Kinobeads™ assays have been previously described (WO-A 2007/137867; WO-A 2006/134056).
(§2) The affinity matrix was washed two times with 15 mL of 1×DP buffer containing 0.2% NP40 (IGEPAL® CA-630, Sigma, #13021) and then resuspended in 1×DP buffer containing 0.2% NP40 (3% beads slurry). 5×DP buffer: 250 mM Tris-HCl pH 7.4, 25% Glycerol, 7.5 mM MgCl2, 750 mM NaCl, 5 mM Na3VO4; filter the 5×DP buffer through a 0.22 μm filter and store in aliquots at −80° C. The 5×DP buffer is diluted with H2O to 1×DP buffer containing 1 mM DTT and 25 mM NaF.
(§3) Stock solutions of test compounds were prepared in DMSO. In a 96 well plate 30 μL solution of diluted test compounds at 5 mM in DMSO were prepared. Starting with this solution a 1:3 dilution series (9 steps) was prepared. For control experiments (no test compound) a buffer containing 2% DMSO was used.
(§4) Molt4 cells (ATCC catalogue number CRL-1582) and Ramos cells (ATCC catalogue number CRL-1596) were grown in 1 L Spinner flasks (Integra Biosciences, #182101) in suspension in RPMI 1640 medium (Invitrogen, #21875-034) supplemented with 10% Fetal Bovine Serum (Invitrogen) at a density between 0.15×10^6 and 1.2×10^6 cells/mL. Cells were harvested by centrifugation, washed once with 1×PBS buffer (Invitrogen, #14190-094) and cell pellets were frozen in liquid nitrogen and subsequently stored at −80° C. Cells were homogenized in a Potter S homogenizer in lysis buffer: 50 mM Tris-HCl, 0.8% NP40, 5% glycerol, 150 mM NaCl, 1.5 mM MgCl2, 25 mM NaF, 1 mM sodium vanadate, 1 mM DTT, pH 7.5. One complete EDTA-free tablet (protease inhibitor cocktail, Roche Diagnostics, 1873580) per 25 mL buffer was added. The material was dounced 10 times using a mechanized POTTER S, transferred to 50 mL falcon tubes, incubated for 30 minutes on ice and spun down for 10 minutes at 20,000 g at 4° C. (10,000 rpm in Sorvall SLA600, precooled). The supernatant was transferred to an ultracentrifuge (UZ)-polycarbonate tube (Beckmann, 355654) and spun for 1 hour at 100.000 g at 4° C. (33.500 rpm in Ti50.2, precooled). The supernatant was transferred again to a fresh 50 mL falcon tube, the protein concentration was determined by a Bradford assay (BioRad) and samples containing 50 mg of protein per aliquot were prepared. The samples were immediately used for experiments or frozen in liquid nitrogen and stored frozen at −80° C.
(§5) Cell lysate (approximately 50 mg protein per plate) was thawed in a water bath at room temperature and then stored on ice. To the thawed cell lysate 1×DP 0.8% NP40 buffer containing protease inhibitors (1 tablet for 25 mL buffer; EDTA-free protease inhibitor cocktail; Roche Diagnostics 1873580) was added in order to reach a final protein concentration of 10 mg/mL total protein. The diluted cell lysate was stored on ice. Mixed Molt4/Ramos lysate was prepared by combining one volume of Molt4 lysate and two volumes of Ramos lysate (ratio 1:2).
(§6) To a 96 well filter plate (Multiscreen HTS, BV Filter Plates, Millipore #MSBVN1250) were added per well: 100 μL affinity matrix (3% beads slurry), 3 μL of compound solution, and 50 μL of diluted lysate. Plates were sealed and incubated for 3 hours in a cold room on a plate shaker (Heidolph tiramax 1000) at 750 rpm. […]

Test [2] deals with T2, JAK2 (Homo sapiens, UniProt O60674).
T2 construct: endogenous in cells; host or cells: Molt4 (ATCC CRL-1582) and Ramos (ATCC CRL-1596), mixed lysate 1:2
T2 sequence (O60674 whole entry): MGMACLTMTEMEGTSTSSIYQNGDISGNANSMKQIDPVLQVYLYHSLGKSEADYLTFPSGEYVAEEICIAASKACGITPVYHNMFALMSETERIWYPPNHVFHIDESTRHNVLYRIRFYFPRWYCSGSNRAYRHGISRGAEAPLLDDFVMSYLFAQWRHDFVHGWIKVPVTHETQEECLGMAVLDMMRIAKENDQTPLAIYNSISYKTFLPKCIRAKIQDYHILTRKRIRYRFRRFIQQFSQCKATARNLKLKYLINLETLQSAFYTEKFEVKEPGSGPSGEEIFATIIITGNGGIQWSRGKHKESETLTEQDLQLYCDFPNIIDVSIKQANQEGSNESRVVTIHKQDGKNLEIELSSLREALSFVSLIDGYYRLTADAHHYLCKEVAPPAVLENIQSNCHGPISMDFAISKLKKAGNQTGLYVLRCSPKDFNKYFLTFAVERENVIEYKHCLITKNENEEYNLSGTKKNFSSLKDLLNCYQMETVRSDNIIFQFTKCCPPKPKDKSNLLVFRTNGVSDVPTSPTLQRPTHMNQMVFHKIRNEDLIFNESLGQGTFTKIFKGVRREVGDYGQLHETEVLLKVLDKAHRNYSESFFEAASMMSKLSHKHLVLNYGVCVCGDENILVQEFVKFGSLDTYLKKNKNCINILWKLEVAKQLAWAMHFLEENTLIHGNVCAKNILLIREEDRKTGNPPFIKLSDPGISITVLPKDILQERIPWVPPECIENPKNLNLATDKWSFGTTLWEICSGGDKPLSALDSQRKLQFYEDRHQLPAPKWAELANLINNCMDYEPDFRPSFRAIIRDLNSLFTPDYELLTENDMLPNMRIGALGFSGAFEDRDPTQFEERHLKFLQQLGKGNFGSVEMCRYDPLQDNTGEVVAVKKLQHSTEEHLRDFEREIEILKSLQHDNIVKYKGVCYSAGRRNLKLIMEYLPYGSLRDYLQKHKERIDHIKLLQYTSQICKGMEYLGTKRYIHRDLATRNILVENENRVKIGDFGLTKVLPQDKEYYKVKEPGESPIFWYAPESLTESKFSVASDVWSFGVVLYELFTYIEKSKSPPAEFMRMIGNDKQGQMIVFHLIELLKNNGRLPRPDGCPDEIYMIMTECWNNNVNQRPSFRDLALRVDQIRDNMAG
The test can be described thus: Kinobeads assay, JAK2 (competition binding in mixed Molt4/Ramos cell lysate, dot blot detection). The note with it: read-out: JAK2 Band (Kinobeads assay potency, IC50). Here is the method: as §1, §2, §3, §4, §5, §6

[3] abbreviates: Kinobeads assay, Molt4/Ramos lysate, read-out: TYK2 Band (Kinobeads assay potency, IC50).

Like-named read-outs stand apart in the source and are kept apart here.

T1 sequence (P29597 whole entry): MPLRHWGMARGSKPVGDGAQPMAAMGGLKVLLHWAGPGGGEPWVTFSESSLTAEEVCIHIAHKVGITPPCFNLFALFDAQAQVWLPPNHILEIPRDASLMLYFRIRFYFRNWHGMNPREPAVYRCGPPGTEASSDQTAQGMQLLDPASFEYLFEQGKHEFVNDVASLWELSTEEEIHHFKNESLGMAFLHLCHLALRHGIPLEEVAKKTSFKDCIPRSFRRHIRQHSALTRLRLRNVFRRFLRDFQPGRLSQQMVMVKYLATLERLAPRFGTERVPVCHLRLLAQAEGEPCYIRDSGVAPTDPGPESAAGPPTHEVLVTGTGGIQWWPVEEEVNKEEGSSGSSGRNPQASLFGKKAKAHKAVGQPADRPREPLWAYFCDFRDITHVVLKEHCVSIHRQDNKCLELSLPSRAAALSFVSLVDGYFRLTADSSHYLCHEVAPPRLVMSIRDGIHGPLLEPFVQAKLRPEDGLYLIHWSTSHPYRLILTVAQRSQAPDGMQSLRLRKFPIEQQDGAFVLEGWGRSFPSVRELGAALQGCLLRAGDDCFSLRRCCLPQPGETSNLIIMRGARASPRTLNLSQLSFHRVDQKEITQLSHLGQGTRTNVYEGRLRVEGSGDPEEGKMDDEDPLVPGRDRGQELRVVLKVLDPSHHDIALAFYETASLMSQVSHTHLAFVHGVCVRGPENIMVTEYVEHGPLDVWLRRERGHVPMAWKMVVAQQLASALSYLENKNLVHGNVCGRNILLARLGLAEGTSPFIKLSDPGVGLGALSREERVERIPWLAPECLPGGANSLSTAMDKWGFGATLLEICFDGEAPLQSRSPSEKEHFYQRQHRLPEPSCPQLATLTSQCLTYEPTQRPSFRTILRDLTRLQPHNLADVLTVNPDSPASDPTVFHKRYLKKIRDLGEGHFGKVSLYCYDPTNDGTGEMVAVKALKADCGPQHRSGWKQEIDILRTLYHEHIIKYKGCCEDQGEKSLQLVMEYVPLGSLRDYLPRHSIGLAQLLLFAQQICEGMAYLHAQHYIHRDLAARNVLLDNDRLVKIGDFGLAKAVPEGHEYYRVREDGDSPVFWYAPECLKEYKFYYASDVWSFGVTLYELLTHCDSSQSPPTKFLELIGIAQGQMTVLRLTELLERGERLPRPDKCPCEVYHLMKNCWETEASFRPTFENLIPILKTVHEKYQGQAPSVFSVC

As to `COc1ccc(Cl)c(CNc2ccnc(Nc3cnn(CC(=O)NC(C)C)c3)n2)c1F` [Example I-79], the IC50 in test [1] (setting [3]) was at most 10 nM; in test [2], 1000 to 10000 nM.
In the case of `O=C(Cn1cc(Nc2nccc(NCc3c(F)cc(F)cc3F)n2)cn1)NC1CC1` [Example I-80], the results for the IC50 in test [1] (setting [3]) and in test [2] were 10 to 100 nM and 1000 to 10000 nM, respectively.
The corresponding values for `COc1ccc(Cl)c(CNc2nc(Nc3cnn(CC(=O)N4CCOCC4)c3)ncc2F)c1F` [Example I-81] are at most 10 nM and 100 to 1000 nM.
Turning to `CC(C)NC(=O)Cn1cc(Nc2ncc(F)c(NCc3c(Cl)ccc(Cl)c3F)n2)cn1` [Example I-82], the IC50 was 10 to 100 nM in test [1] (setting [3]) and 100 to 1000 nM in test [2].
Regarding `COc1ccc(Cl)c(CNc2nc(Nc3cnn(CC(=O)NC(C)C)c3)ncc2F)c1F` [Example I-84], the values for the IC50 in test [1] (setting [3]) and in test [2] were at most 10 nM and 100 to 1000 nM, respectively.
Consider `COc1ccc(Cl)c(CNc2nc(Nc3cnn(C)c3)ncc2F)c1F` [Example I-85], for which the IC50 in test [1] (setting [3]) lay within 10 to 100 nM; in test [2] it was 100 to 1000 nM.
Regarding `O=C(Cn1cc(Nc2nccc(NCc3c(F)cc(F)cc3F)n2)cn1)NCC(F)(F)F` [Example I-86], the IC50 was 10 to 100 nM in test [1] (setting [3]) and over 10000 nM in test [2].
The like results for `Cc1cnc(Nc2cnn(CC(F)F)c2)nc1NCc1c(F)ccc(F)c1F` [Example I-87] were, in that order, 10 to 100 nM and 100 to 1000 nM.
Turning to `COc1ccc(S(C)(=O)=O)cc1CNc1nc(Nc2cnn(CCO)c2)ncc1F` [Example I-88], the IC50 in test [1] (setting [3]) lay in the range of 10 to 100 nM; in test [2], 100 to 1000 nM.
Regarding `O=C(Cn1cc(Nc2nccc(NCc3c(F)cc(F)cc3F)n2)cn1)NCCO` [Example I-89], the IC50 in test [1] (setting [3]) lay in the range of 10 to 100 nM; in test [2] it was 1000 to 10000 nM.
The like results for `O=C(Cn1cc(Nc2nccc(NCc3c(F)cc(F)cc3F)n2)cn1)NCCF` [Example I-90] were, in that order, 10 to 100 nM and 1000 to 10000 nM.
The like results for `O=C(Cn1cc(Nc2nccc(NCc3c(F)cc(F)cc3F)n2)cn1)NC1CC1(F)F` (stereo not shown) [Example I-91] were, in that order, 10 to 100 nM and over 10000 nM.
The corresponding values for `O=C(Cn1cc(Nc2nccc(NCc3c(F)cc(F)cc3F)n2)cn1)NCC(F)F` [Example I-92] are 10 to 100 nM and 1000 to 10000 nM.
`CC(C)NC(=O)Cn1cc(Nc2nccc(NCc3c(Cl)ccc(F)c3F)n2)cn1` [Example I-93]: the IC50 in test [1] (setting [3]) lay within 10 to 100 nM; in test [2] it was 1000 to 10000 nM.
In the case of `CC(C)NC(=O)Cn1cc(Nc2nccc(NCc3c(F)cc(F)cc3Cl)n2)cn1` [Example I-94], the IC50 lay within 10 to 100 nM in test [1] (setting [3]) and 1000 to 10000 nM in test [2].
In the case of `O=C(Cn1cc(Nc2nccc(NCc3c(F)cc(F)cc3F)n2)cn1)NC1CCOC1` (stereo not shown) [Example I-95], the half-maximal inhibitory concentration (IC50) was in the range of 10 to 100 nM in test [1] (setting [3]) and 1000 to 10000 nM in test [2].
`CS(=O)(=O)c1ccc(F)c(CNc2nc(Nc3cn[nH]c3)ncc2Cl)c1` [Example I-98]: the IC50 in test [1] (setting [3]) was 10 to 100 nM; in test [2] it was 100 to 1000 nM.
The corresponding values for `Cn1cc(Nc2ncc(Cl)c(NCc3cc(S(C)(=O)=O)ccc3F)n2)cn1` [Example I-99] are 10 to 100 nM and 100 to 1000 nM.
The corresponding values for `CS(=O)(=O)c1ccc(F)c(CNc2nc(Nc3cnn(CC(N)=O)c3)ncc2Cl)c1` [Example I-100] are 10 to 100 nM and 100 to 1000 nM.
Regarding `Cc1cnc(Nc2cnn(CC(=O)NC3CC3)c2)nc1NCc1cc(F)cc(F)c1F` [Example I-101], the IC50 in test [1] (setting [3]) fell in the range of 10 to 100 nM; in test [2], 100 to 1000 nM.
The corresponding values for `O=C(Cn1cc(Nc2nccc(NCc3c(F)cc(F)cc3F)n2)cn1)N[C@@H]1C[C@@H]1F` [Example I-102] are at most 10 nM and 1000 to 10000 nM.
The like results for `CC(NC(=O)Cn1cc(Nc2nccc(NCc3c(F)cc(F)cc3F)n2)cn1)C1CCOC1` (stereo not shown) [Example I-105] were, in that order, 10 to 100 nM and over 10000 nM.
The like results for `C[C@H](CO)NC(=O)Cn1cc(Nc2nccc(NCc3c(F)cccc3Cl)n2)cn1` [Example I-106] were, in that order, at most 10 nM and 1000 to 10000 nM.
As to `COc1ccc(S(C)(=O)=O)cc1CNc1nc(Nc2cnn(CC(F)F)c2)ncc1C` [Example I-107], the IC50 was 10 to 100 nM in test [1] (setting [3]) and 100 to 1000 nM in test [2].
The corresponding values for `N#CCNC(=O)Cn1cc(Nc2nccc(NCc3c(F)cc(F)cc3F)n2)cn1` [Example I-110] are 10 to 100 nM and over 10000 nM.
On to `Fc1cc(F)c(CNc2ccnc(Nc3cnn(CCN4CCOCC4)c3)n2)c(F)c1` [Example I-112], for which the IC50 in test [1] (setting [3]) was 10 to 100 nM; in test [1] (read-out: TYK2 IC50) it was under 100 nM; in test [2], 1000 to 10000 nM.
As for `CS(=O)(=O)c1ccc(F)c(CNc2nc(Nc3cn[nH]c3)ncc2F)c1` [Example I-114], the IC50 in test [1] (setting [3]) fell in the range of 10 to 100 nM; in test [2] it was 1000 to 10000 nM.
The corresponding values for `CS(=O)(=O)c1ccc(F)c(CNc2nc(Nc3cnn(CCO)c3)ncc2F)c1` [Example I-115] are 10 to 100 nM and 1000 to 10000 nM.
`CS(=O)(=O)c1ccc(F)c(CNc2nc(Nc3cnn(CC(N)=O)c3)ncc2F)c1` [Example I-116]: the IC50 in test [1] (setting [3]) lay within 10 to 100 nM; in test [2], 1000 to 10000 nM.
Turning to `COc1ccc(F)c(CNc2ccnc(Nc3cnn(CC(=O)N4CCOCC4)c3)n2)c1F` [Example I-117], the IC50 is at most 10 nM in test [1] (setting [3]) and 1000 to 10000 nM in test [2].
`Cn1cc(Nc2ncc(Cl)c(NCc3c(F)cccc3C(F)(F)F)n2)cn1` [Example I-118]: the IC50 was 10 to 100 nM in test [1] (setting [3]) and 1000 to 10000 nM in test [2].
With `CC(C)NC(=O)Cn1cc(Nc2nccc(NCc3c(Cl)ccc(F)c3Cl)n2)cn1` [Example I-119], the values for the IC50 in test [1] (setting [3]) and in test [2] were 10 to 100 nM and over 10000 nM, respectively.
The like results for `C[C@@H](CO)NC(=O)Cn1cc(Nc2nccc(NCc3c(F)cccc3Cl)n2)cn1` [Example I-120] were, in that order, at most 10 nM and 1000 to 10000 nM.
Take `C[C@@H](CO)NC(=O)Cn1cc(Nc2nccc(NCc3c(Cl)ccc(Cl)c3F)n2)cn1` [Example I-121]: the IC50 in test [1] (setting [3]) is at most 10 nM; in test [2] it was 100 to 1000 nM.
As for `COc1ccc(Cl)c(CNc2ccnc(Nc3cnn(CC(=O)N[C@@H](C)CO)c3)n2)c1F` [Example I-122], the IC50 in test [1] (setting [3]) was at most 10 nM; in test [2], 100 to 1000 nM.
The corresponding values for `COc1ccc(Cl)c(CNc2ccnc(Nc3cnn(CC(=O)N[C@H](C)CO)c3)n2)c1F` [Example I-123] are at most 10 nM and 100 to 1000 nM.
The like results for `COc1ccc(F)c(CNc2ccnc(Nc3cnn(CC(=O)N[C@H](C)CO)c3)n2)c1F` [Example I-124] were, in that order, 10 to 100 nM and 1000 to 10000 nM.
On to `COc1ccc(F)c(CNc2ccnc(Nc3cnn(CC(=O)NC4CC4)c3)n2)c1F` [Example I-125], for which the IC50 was at most 10 nM in test [1] (setting [3]), under 100 nM in test [1] (read-out: TYK2 IC50) and 1000 to 10000 nM in test [2].
Consider `COc1ccc(F)c(CNc2ccnc(Nc3cnn(CC(=O)NCCF)c3)n2)c1F` [Example I-126], for which the figures for the 50% inhibitory concentration (IC50) in test [1] (setting [3]) and in test [2] were 10 to 100 nM and 1000 to 10000 nM, respectively.
The corresponding values for `COc1ccc(F)c(CNc2ccnc(Nc3cnn(CC(=O)NCC(F)F)c3)n2)c1F` [Example I-127] are 10 to 100 nM and 1000 to 10000 nM.
